Data published in patent publication US20250277734A1, “M-MIC: Microfluidic Microbiologically Influenced Corrosion Model” (The Texas A&M University System, priority 2017, published 2025).

Test system: Shewanella oneidensis biofilms
Experiment: Biocide efficacy on S. oneidensis biofilms grown on carbon steel in single-electrode M-MIC (live/dead staining, confocal microscopy)
Format: cell-based
Details: for increase in the percentage of dead cells: 400 ppm biocide added to 12 hour biofilm on carbon steel, after 4 hours SYTO9/propidium iodide staining, 30° C.
Protocol: Biofilms of Shewanella oneidensis (e.g., S. oneidensis, an iron-reducing bacterium commonly found in MIC sites) were grown on carbon steel in the single-metal system, such as M-MIC 200 as depicted in FIG. 2. In this Example 2, the single electrode comprised steel, the substrate 112 comprised glass, and the structure 104 comprised PDMS. Biofilms were developed in the system at 30° C. with a constant flow of Luria-Bertani growth medium which contained 10 g/l tryptone, 5 g/l yeast extract and 15 g/l sodium chloride being introduced at a flow rate of 0.25 mL/h. After 12 hours, flow of growth medium was stopped and 400 ppm of two common oilfield biocides, glutaraldehyde and tetrakis-hydroxymethyl-phosphonium sulfate (THPS), were added to the biofilms. After 4 hours, live and dead cells in the biofilms were stained using SYTO9 (green) and propidium iodide (red), respectively. Stained biofilms were analyzed for the percentage of live and dead cells to determine biocide efficiency. […] In addition to determining the right biocide, similar studies can be conducted with different biocide concentrations to also determine the appropriate biocide dosage.

Row | Compound | increase in the percentage of dead cells [fold] | relative biocide effectiveness against S. oneidensis biofilms (400 ppm, 4 hours, under the conditions tested)
1 | tetrakis-hydroxymethyl-phosphonium sulfate [THPS] | 3.1 | more effective than glutaraldehyde
2 | O=CCCCC=O [glutaraldehyde] | 2.1 | 
